33 compounds from US20240067639A1, “SMALL MOLECULES THAT TARGET THE RNA THAT CAUSES ALS” (EXPANSION THERAPEUTICS, INC., priority 2020, published 2024) can be followed below.

Assay [1] has as its target biotinylated r(G4C2)8 RNA and hnRNP H1-His6. The experiment in a line: TR-FRET hnRNP H binding assay. Summed up:
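Biotinylated r(G4C2)8 RNA (80 nM), heat-folded at 95 °C then slowly cooled, was preincubated 15 min with compound before hnRNP H1-His6 (75 nM) was added. After 15 min, streptavidin-XL665 (40 nM) and anti-His6-Tb (0.44 ng/μL) were added and TR-FRET was read after 1 h. IC50 was obtained by curve fitting.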
(TR-FRET usually uses a lanthanide donor and a delayed reading to cut background.)

The subject of assay [2] is RAN translation of (G4C2)66-No ATG-GFP in HEK293T cells. In words: Cell-based assay of RAN translation inhibition (GFP/mCherry reporter). The note with it: Homo sapiens, HEK-293T, 24 h, read-out: RANT IC25.
Where [3] appears, read: Table F, HEK293T, 24 h treatment.
Setting [4] is: Table D, HEK293T, 24 h treatment.

Like-named read-outs stand apart in the source and are kept apart here. Some results are limits rather than exact numbers.

For the compound `Cc1c2ccncc2cc2c3cc(OCCN4CCC(C)(C)CC4)ccc3n(C)c12` [Compound 223, 9-(2-(4,4-dimethylpiperidin-1-yl)ethoxy)-5,6-dimethyl-6H-pyrido[4,3-b]carbazole], the Ki (in general, a dissociation constant, usually derived from enzyme kinetics or from competition with a known ligand) in assay [1] (Table F) is 3.1 µM. Also, the IC25 (usually the concentration at which the effect reaches the 25% level) in assay [2] (setting [3]) amounted to 3.8 µM.

In assay [1] (Table F), `Cc1c2ccncc2cc2c1sc1ccc(OCCN(C)C)cc12` [Compound 224, N,N-dimethyl-2-((5-methylbenzo[4,5]thieno[2,3-g]isoquinolin-9-yl)oxy)ethanamine] had a Ki of 8.6 µM. For the same compound, the IC25 in assay [2] is > 5 µM.

In the case of `Cc1c2ccncc2cc2c3cc(OCCN4CCC(C)CC4)ccc3n(C)c12` [Compound 227, 5,6-dimethyl-9-(2-(4-methylpiperidin-1-yl)ethoxy)-6H-pyrido[4,3-b]carbazole], in assay [1] (Table F), the Ki amounted to 1.4 µM. Moreover, the IC25 in assay [2] is > 5 µM.

In assay [1] (Table F), `Cc1c2ccncc2cc2c3cc(OCCN4CCC(F)CC4)ccc3n(C)c12` [Compound 229, 9-(2-(4-fluoropiperidin-1-yl)ethoxy)-5,6-dimethyl-6H-pyrido[4,3-b]carbazole] displayed a Ki of 4.2 µM. Also, in assay [2], the IC25 was 2.2 µM.

`Cc1c2ccncc2cc2c3cc(OC[C@H](C)N(C)C)ccc3n(C)c12` [Compound 230, (S)-1-((5,6-dimethyl-6H-pyrido[4,3-b]carbazol-9-yl)oxy)-N,N-dimethylpropan-2-amine] returned a Ki in assay [1] (Table F) of 1.2 µM. The IC25 in assay [2] (setting [3]) was 4.3 µM.

With `Cc1c2ccncc2cc2c1oc1ccc(OCCN3CCOCC3)cc12` [Compound 231, 5-methyl-9-(2-morpholinoethoxy)benzofuro[2,3-g]isoquinoline], in assay [1] (Table F), the Ki was > 200 µM. For the same compound, the IC25 in assay [2] was > 5 µM.

For the compound `Cc1c2ccncc2cc2c3cccc(OCC4=NCCN4)c3n(C)c12` [Compound 232, 7-((4,5-dihydro-1H-imidazol-2-yl)methoxy)-5,6-dimethyl-6H-pyrido[4,3-b]carbazole], in assay [1] (Table F), the Ki was determined as 2 µM. For the same compound, in assay [2] (setting [3]), the IC25 was > 5 µM.

The compound `Cn1c2ccc(OCC3=NCCN3)cc2c2cc3cnccc3cc21` [Compound 234, 9-((4,5-dihydro-1H-imidazol-2-yl)methoxy)-6-methyl-6H-pyrido[4,3-b]carbazole] yielded a Ki in assay [1] (Table F) of 0.8 µM. In addition, in assay [2] (setting [3]), the IC25 was determined as 0.65 µM.

On to `Cc1c2ccncc2cc2c3cc(OCCN4CCOCC4)ccc3n(C(C)C)c12` [Compound 235, 4-(2-((6-isopropyl-5-methyl-6H-pyrido[4,3-b]carbazol-9-yl)oxy)ethyl)morpholine], for which the Ki in assay [1] (Table F) is > 200 µM. Moreover, the IC25 in assay [2] was > 5 µM.

`Cc1c2ccncc2cc2c1oc1ccc(OCCN(C)C)cc12` [Compound 236, N,N-dimethyl-2-((5-methylbenzofuro[2,3-g]isoquinolin-9-yl)oxy)ethanamine]: in assay [1] (Table F), the Ki amounted to 14 µM. Besides, the IC25 in assay [2] is > 5 µM.

For `CN(C)CCOc1ccc2c(c1)c1cc3cnccc3cc1n2C` [Compound 237, N,N-dimethyl-2-((6-methyl-6H-pyrido[4,3-b]carbazol-9-yl)oxy)ethanamine], the Ki in assay [1] (Table F) is 3.6 µM. In addition, the IC25 in assay [2] stood at 2 µM.

`Cc1c2ccncc2cc2c3cc(OC[C@@H](C)N(C)C)ccc3n(C)c12` [Compound 242, (R)-1-((5,6-dimethyl-6H-pyrido[4,3-b]carbazol-9-yl)oxy)-N,N-dimethylpropan-2-amine]: in assay [1] (Table F), the Ki came to 0.5 µM. The IC25 in assay [2] (setting [3]) amounted to 1.5 µM.

Regarding `Cc1c2ccncc2cc2c3cc(N4CCN(C)CC4)ccc3n(C)c12` [Compound 243, 5,6-dimethyl-9-(4-methylpiperazin-1-yl)-6H-pyrido[4,3-b]carbazole], the Ki in assay [1] (Table F) is 0.6 µM. Also, in assay [2] (setting [3]), the IC25 is 1.2 µM.

In assay [1] (Table F), `Cc1c2ccncc2cc2c3cc(N4CCNCC4)ccc3n(C)c12` [Compound 244, 5,6-dimethyl-9-(piperazin-1-yl)-6H-pyrido[4,3-b]carbazole] yielded a Ki of 0.4 µM. Besides, the IC25 in assay [2] (setting [3]) is 2.4 µM.

The compound `Cn1c2ccc(OCC(=N)N)cc2c2cc3cnccc3cc21` [Compound 245, 2-((6-methyl-6H-pyrido[4,3-b]carbazol-9-yl)oxy)acetimidamide] had a Ki in assay [1] (Table F) of 0.8 µM. For the same compound, the IC25 in assay [2] (setting [3]) was 1.7 µM.

For the compound `Cc1c2ccncc2cc2c3cc(N4CCNC5(CC5)C4)ccc3n(C)c12` [Compound 246, 5,6-dimethyl-9-(4,7-diazaspiro[2.5]octan-7-yl)-6H-pyrido[4,3-b]carbazole], in assay [1] (Table F), the Ki stood at 1.6 µM. Besides, the IC25 in assay [2] (setting [3]) was > 5 µM.

Take `Cc1c2ccncc2cc2c3cc(OCCN4CCOCC4)ccc3n(CC(C)(C)C)c12` [Compound 247, 4-(2-((5-methyl-6-neopentyl-6H-pyrido[4,3-b]carbazol-9-yl)oxy)ethyl)morpholine]: the Ki in assay [1] (Table F) is > 200 µM. Moreover, the IC25 in assay [2] (setting [3]) is > 5 µM.

Turning to `Cc1c2ccncc2cc2c3cc(OCCN4CCOCC4)ccc3n(CCC(C)C)c12` [Compound 248, 4-(2-((6-isopentyl-5-methyl-6H-pyrido[4,3-b]carbazol-9-yl)oxy)ethyl)morpholine], the Ki in assay [1] (Table F) is > 200 µM. Also, the IC25 in assay [2] was > 5 µM.

In turn, `Cc1c2ccncc2cc2c3cc(OCC4=NCCN4)ccc3n(CCC(C)C)c12` [Compound 249, 9-(4,5-dihydro-1H-imidazol-2-ylmethoxy)-6-isopentyl-5-methyl-pyrido[4,3-b]carbazole] showed a Ki in assay [1] (Table F) of 22 µM. In assay [2] (setting [3]), the IC25 is > 5 µM.

Turning to `Cc1c2ccncc2cc2c1[nH]c1ccc(OCCN3CCOCC3)cc12` [Compound 250, 4-(2-((5-methyl-6H-pyrido[4,3-b]carbazol-9-yl)oxy)ethyl)morpholine], the Ki in assay [1] (Table F) was 11 µM. Besides, in assay [2] (setting [3]), the IC25 was > 5 µM.

Regarding `Cc1c2ccncc2cc2c3cc(OCC4=NCCN4)ccc3n(CC(C)(C)C)c12` [Compound 252, 9-((4,5-dihydro-1H-imidazol-2-yl)methoxy)-5-methyl-6-neopentyl-6H-pyrido[4,3-b]carbazole], in assay [1] (Table F), the Ki is > 200 µM. In addition, in assay [2] (setting [3]), the IC25 is > 5 µM.

In turn, `Cc1c2ccnc(C(=O)N[C@H](C)CN(C)C)c2cc2c3cccc(OCCCN4CCN(C)CC4)c3n(C)c12` [Compound 253, (R)—N-(1-(dimethylamino)propan-2-yl)-5,6-dimethyl-7-(3-(4-methylpiperazin-1-yl)propoxy)-6H-pyrido[4,3-b]carbazole-1-carboxamide] showed an inhibition constant (Ki) in assay [1] (Table F) of 14 µM. Moreover, in assay [2] (setting [3]), the IC25 is > 5 µM.

In turn, `Cc1c2ccncc2cc2c3cc(OCC4=NCCN4)cc(F)c3n(C)c12` [Compound 254, 9-((4,5-dihydro-1H-imidazol-2-yl)methoxy)-7-fluoro-5,6-dimethyl-6H-pyrido[4,3-b]carbazole] yielded a Ki in assay [1] (Table F) of 1.8 µM. The 25% effect concentration (IC25) in assay [2] (setting [3]) is > 5 µM.

For `CCn1c2ccc(OCC3=NCCN3)cc2c2cc3cnccc3cc21` [Compound 255, 9-(4,5-dihydro-1H-imidazol-2-ylmethoxy)-6-ethyl-pyrido[4,3-b]carbazole], the affinity in assay [1] (Table F) corresponds to a Ki of 8.8 µM. Moreover, in assay [2] (setting [3]), the IC25 was 1.25 µM.

Take `CC(C)n1c2ccc(OCC3=NCCN3)cc2c2cc3cnccc3cc21` [Compound 256, 9-(4,5-dihydro-1H-imidazol-2-ylmethoxy)-6-isopropyl-pyrido[4,3-b]carbazole]: the affinity in assay [1] (Table F), expressed as Ki, was 42 µM. In assay [2] (setting [3]), the IC25 was > 5 µM.

For `Cc1c2ccncc2cc2c1[nH]c1ccc(OCC3=NCCN3)cc12` [Compound 257, 9-((4,5-dihydro-1H-imidazol-2-yl)methoxy)-5-methyl-6H-pyrido[4,3-b]carbazole], affinity in assay [1] (Table F) was put at a Ki of 5.7 µM. Besides, the IC25 in assay [2] (setting [3]) came to 2.7 µM.

`COc1ccc2c(c1)c1cc3c(C(=O)N[C@H](C)CN(C)C)nccc3c(C)c1n2C` [Example 25, (R)—N-(1-(dimethylamino)propan-2-yl)-9-methoxy-5,6-dimethyl-6H-pyrido[4,3-b]carbazole-1-carboxamide]: the Ki in assay [1] (Table D) stood at 39 µM. In addition, the IC25 in assay [2] (setting [4]) was found to be 0.27 µM.

In the case of `Cc1c2ccnc(C(=O)N[C@H](C)CN(C)C)c2cc2c3cc(OCCCN4CCN(C)CC4)ccc3n(C)c12` [Example 26, (R)—N-(1-(dimethylamino)propan-2-yl)-5,6-dimethyl-9-(3-(4-methylpiperazin-1-yl)propoxy)-6H-pyrido[4,3-b]carbazole-1-carboxamide], in assay [1] (Table D), the Ki is 5.9 µM. Also, the IC25 in assay [2] (setting [4]) worked out at 0.57 µM.

The compound `COc1ccc2c(c1)c1cc3c(C(=O)N[C@@H](C)CN(C)C)nccc3c(C)c1n2C` [Example 27, (S)—N-(1-(dimethylamino)propan-2-yl)-9-methoxy-5,6-dimethyl-6H-pyrido[4,3-b]carbazole-1-carboxamide] showed a Ki in assay [1] (Table D) of 9.1 µM. The IC25 in assay [2] (setting [4]) was determined as 1 µM.

`COc1ccc2c(c1)c1cc3c(C(=O)NCCN(C)C)nccc3c(C)c1n2C` [Example 28, N-[2-(dimethylamino)ethyl]-9-methoxy-5,6-dimethyl-pyrido[4,3-b]carbazole-1-carboxamide] had a Ki in assay [1] (Table D) of 8.1 µM. Moreover, the IC25 in assay [2] (setting [4]) was 0.64 µM.

In the case of `COc1ccc2c(c1)c1cc3c(C(=O)NCCCN(C)C)nccc3c(C)c1n2C` [Example 29, N-(3-(dimethylamino)propyl)-9-methoxy-5,6-dimethyl-6H-pyrido[4,3-b]carbazole-1-carboxamide], the affinity in assay [1] (Table D), expressed as Ki, was 17 µM. In assay [2] (setting [4]), the IC25 was found to be 0.74 µM.

Turning to `Cc1c2ccncc2cc2c3cc(OCCN4CCN(C)CC4)ccc3n(C)c12` [Example 30, 5,6-dimethyl-9-(2-(4-methylpiperazin-1-yl)ethoxy)-6H-pyrido[4,3-b]carbazole], the affinity in assay [1] (Table D), expressed as Ki, was 2.5 µM. The IC25 in assay [2] (setting [4]) is 2.2 µM.

As for `Cc1c2ccncc2cc2c3cc(OCCN4CCCCC4)ccc3n(C)c12` [Example 31, 5,6-dimethyl-9-(2-(piperidin-1-yl)ethoxy)-6H-pyrido[4,3-b]carbazole], the Ki in assay [1] (Table D) amounted to 4.5 µM. In addition, the IC25 in assay [2] was 2.8 µM.
